# Test results from US11834453B2, “Substituted pyrimido[5,4-d]pyrimidines as HER2 inhibitors” (Array BioPharma Inc., priority 2020, dated 2023).
# How the values were obtained:
# [1] = target: ErbB2 insYVMA (HER2-YVMA, SEQ ID NO: 2) (Homo sapiens, UniProt P04626, INS775YVMA/P1170A); assay: biochemical; details: ErbB2 insYVMA enzyme assay; read-out: Assay 1 IC50
# [2] = target: ErbB2 WT (Homo sapiens (Human), UniProt P04626); assay: ErbB enzyme assay (CisBio HTRF KinEASE-TK), Assay 2; format: biochemical
# Procedure, shortened: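 Readout is HTRF KinEASE-TK, using Sa-XL665 and cryptate antibody for 1 h at 22 °C, as percent of control between DMSO-only (100) and pre-quenched (0) reactions. The kinase reaction runs 30 min at 22 °C with 1 mM ATP and 250 nM biotinylated TK substrate, in HEPES pH 7.4 with MgCl2 and 2% DMSO.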
# [3] = target: EGFR (Homo sapiens (Human), UniProt P00533); assay: ErbB enzyme assay (CisBio HTRF KinEASE-TK), Assay 3; format: biochemical
# Procedure, shortened: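 IC50 was taken where a 4-parameter logistic fit crossed 50 percent of control (DMSO 100, pre-quenched 0), read by ratiometric HTRF. Reactions ran 30 min at 22 °C with 1 mM ATP and 250 nM TK-substrate biotin in pH 7.4 HEPES buffer with MgCl2, Triton X-100 and 2% DMSO.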
# [4] = target: ErbB2 with Exon 20 YVMA insertion (HER2-YVMA) (Homo sapiens (Human), UniProt P04626, INS775YVMA); assay: Cellular phosphorylation assay, constitutive ErbB2 phosphorylation (Y1196) in engineered NIH 3T3 cells, Assay 4; format: cell-based
# Procedure, shortened: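 In-cell Western in NIH 3T3 cells carrying ErbB2 exon 20 YVMA insertion, with no ligand stimulation. One hour compound exposure at 37 °C before fixation and anti-pY1196 plus GAPDH staining with dual-wavelength fluorescence. IC50 derived after GAPDH normalization.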
# [5] = target: EGFR wild type (EGFR WT) (Homo sapiens (Human), UniProt P00533); assay: Cellular phosphorylation assay, EGF-stimulated EGFR phosphorylation in engineered NIH 3T3 cells, Phospho-EGFR DuoSet IC ELISA, Assay 5; format: cell-based
# Procedure, shortened: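 Phospho-EGFR ELISA on lysates of engineered NIH 3T3 EGFR WT cells, IC50 derived from concentration curves. Cells plated at 20,000/well overnight, given compound dilutions 1 h at 37 °C, then rEGF 100 ng/ml for a further 10 min before lysis.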
# Chain of EGFR (P00533 25-1210): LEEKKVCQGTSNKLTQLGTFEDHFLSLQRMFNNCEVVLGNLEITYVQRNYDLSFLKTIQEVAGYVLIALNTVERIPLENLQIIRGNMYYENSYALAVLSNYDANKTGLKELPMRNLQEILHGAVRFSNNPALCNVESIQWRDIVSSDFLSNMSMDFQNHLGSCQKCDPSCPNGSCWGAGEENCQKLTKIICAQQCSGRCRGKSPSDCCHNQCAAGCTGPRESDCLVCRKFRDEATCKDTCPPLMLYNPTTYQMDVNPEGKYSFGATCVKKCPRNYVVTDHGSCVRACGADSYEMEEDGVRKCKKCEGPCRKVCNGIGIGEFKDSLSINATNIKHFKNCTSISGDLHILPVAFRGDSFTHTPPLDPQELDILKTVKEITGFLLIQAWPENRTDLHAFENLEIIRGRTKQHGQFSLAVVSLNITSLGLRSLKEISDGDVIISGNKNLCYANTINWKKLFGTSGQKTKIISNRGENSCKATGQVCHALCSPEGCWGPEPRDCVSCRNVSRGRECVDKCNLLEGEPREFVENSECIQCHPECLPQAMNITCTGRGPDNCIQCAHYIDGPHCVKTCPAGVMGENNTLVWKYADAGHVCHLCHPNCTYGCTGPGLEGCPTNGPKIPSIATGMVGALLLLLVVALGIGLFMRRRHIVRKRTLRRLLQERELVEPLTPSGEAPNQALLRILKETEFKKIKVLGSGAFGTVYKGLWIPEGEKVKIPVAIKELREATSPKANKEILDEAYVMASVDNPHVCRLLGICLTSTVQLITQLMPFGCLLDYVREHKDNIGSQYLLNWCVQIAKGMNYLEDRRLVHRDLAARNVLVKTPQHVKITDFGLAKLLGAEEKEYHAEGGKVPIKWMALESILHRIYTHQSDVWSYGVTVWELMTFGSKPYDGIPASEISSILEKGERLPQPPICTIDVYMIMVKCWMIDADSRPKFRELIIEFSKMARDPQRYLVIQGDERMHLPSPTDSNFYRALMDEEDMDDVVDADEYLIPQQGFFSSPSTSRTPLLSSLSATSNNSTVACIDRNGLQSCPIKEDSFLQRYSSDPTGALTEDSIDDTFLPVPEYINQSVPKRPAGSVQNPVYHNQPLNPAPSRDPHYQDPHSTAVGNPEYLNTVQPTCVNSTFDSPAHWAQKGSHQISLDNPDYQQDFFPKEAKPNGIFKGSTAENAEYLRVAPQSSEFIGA
# Chain of EGFR wild type (EGFR WT) (P00533 25-1210): as above
# Chain of ErbB2 with Exon 20 YVMA insertion (HER2-YVMA) (P04626 other isoform, or with tags, fused parts or gaps ins YVMA behind 775): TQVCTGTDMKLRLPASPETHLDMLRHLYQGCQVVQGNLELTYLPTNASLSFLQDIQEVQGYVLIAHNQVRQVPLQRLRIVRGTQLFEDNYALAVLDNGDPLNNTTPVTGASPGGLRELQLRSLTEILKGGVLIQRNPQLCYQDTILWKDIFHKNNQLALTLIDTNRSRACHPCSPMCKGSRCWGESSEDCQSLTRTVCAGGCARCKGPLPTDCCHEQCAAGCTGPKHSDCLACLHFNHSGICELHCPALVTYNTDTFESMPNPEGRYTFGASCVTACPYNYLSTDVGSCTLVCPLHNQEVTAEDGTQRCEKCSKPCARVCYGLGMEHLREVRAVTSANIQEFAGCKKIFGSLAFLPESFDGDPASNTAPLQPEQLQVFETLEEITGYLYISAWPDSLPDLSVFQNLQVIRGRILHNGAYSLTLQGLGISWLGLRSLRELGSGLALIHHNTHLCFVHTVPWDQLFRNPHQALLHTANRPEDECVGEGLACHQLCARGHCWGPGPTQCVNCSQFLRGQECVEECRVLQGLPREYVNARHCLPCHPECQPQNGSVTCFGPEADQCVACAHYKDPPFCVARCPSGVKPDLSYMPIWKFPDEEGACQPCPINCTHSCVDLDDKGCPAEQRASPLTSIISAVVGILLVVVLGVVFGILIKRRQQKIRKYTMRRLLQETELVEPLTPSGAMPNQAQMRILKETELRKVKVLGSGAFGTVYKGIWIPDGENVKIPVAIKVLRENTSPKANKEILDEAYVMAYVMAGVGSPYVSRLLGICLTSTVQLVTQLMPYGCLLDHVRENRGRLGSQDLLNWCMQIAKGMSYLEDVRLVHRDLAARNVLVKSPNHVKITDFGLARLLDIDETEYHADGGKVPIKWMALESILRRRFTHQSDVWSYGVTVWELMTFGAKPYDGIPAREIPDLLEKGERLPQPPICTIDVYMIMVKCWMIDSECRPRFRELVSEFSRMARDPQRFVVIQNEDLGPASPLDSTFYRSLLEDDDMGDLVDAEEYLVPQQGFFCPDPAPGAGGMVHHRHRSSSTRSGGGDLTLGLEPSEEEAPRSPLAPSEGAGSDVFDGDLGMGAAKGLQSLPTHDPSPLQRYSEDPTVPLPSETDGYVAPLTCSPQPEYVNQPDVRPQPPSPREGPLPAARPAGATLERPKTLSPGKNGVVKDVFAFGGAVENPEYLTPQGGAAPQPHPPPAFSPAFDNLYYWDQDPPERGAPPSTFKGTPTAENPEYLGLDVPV
# Chain of ErbB2 WT (P04626 23-1255): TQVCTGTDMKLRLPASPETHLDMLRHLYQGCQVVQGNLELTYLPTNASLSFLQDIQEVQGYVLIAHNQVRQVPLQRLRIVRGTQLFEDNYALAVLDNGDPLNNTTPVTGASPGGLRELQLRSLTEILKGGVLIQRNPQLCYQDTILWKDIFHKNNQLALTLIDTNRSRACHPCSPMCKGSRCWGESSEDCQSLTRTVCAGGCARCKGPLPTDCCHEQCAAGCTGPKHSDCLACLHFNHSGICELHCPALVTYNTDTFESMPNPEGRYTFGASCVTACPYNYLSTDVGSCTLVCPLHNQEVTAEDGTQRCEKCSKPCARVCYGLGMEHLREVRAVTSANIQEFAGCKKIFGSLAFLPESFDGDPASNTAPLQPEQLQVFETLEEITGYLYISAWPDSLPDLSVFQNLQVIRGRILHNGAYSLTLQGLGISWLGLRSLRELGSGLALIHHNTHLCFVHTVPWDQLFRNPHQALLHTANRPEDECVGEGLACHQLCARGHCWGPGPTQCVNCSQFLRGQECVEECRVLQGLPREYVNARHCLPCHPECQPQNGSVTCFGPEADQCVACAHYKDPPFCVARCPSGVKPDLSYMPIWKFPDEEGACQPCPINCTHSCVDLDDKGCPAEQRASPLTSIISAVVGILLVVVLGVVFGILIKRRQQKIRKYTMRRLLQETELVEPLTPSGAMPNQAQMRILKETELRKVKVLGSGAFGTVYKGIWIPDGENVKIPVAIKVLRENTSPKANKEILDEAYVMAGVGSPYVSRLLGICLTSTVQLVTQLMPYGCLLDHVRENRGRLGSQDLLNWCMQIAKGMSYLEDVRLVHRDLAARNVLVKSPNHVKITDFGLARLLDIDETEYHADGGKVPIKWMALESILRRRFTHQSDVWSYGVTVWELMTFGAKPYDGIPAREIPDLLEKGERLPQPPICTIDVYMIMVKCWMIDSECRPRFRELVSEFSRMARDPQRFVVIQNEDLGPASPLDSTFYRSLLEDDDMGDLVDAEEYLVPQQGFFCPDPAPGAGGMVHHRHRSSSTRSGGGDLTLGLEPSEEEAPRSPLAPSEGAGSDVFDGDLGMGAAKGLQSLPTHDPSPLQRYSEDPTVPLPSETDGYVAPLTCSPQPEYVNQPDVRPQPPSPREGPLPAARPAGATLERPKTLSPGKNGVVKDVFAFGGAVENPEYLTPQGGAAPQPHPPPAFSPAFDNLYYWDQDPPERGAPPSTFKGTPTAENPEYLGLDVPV
Structure (SMILES),IC50 [1] [nM],IC50 [2] [nM],IC50 [3] [nM],IC50 [4] [nM],IC50 [5] [nM]
"CON1CCC(Nc2ncc3ncnc(Nc4ccc(Oc5ccc6c(c5)ncn6C)c(C)c4)c3n2)C1 (stereo not drawn) [Example 220, N2-(1-methoxpyrrolidin-3-yl)-N8-(3-methyl-4-((1-methyl-1H-benzo[d]imidazol-5-yl)oxy)phenyl)pyrimido[5,4-d]pyrimidine-2,8-diamine]",9.3,12.1,1520,8,≥ 5000
Cc1cnc(-c2ncc3ncnc(Nc4ccc(Oc5ccc6c(c5)ncn6C)c(C)c4)c3n2)o1 [Example 231],115,274,≥ 10000,39.2,≥ 5000
CNc1ncc2ncnc(Nc3ccc(Oc4ccc5csnc5c4)c(C)c3)c2n1 [Example 241],28.3,123,1640,244,≥ 5000
Cc1cc(Nc2ncnc3cnc(N4CCOCC4)nc23)ccc1Oc1ccc2csnc2c1 [Example 243],40.6,264,2490,173,3040
Cc1cc(Nc2ncnc3cnc(N4CC5CCC(C4)O5)nc23)ccc1Oc1ccc2c(c1)ncn2C [Example 256],49.1,71.7,≥ 10000,12.2,≥ 5000
Cc1cc(Nc2ncnc3cnc(N4CCOC[C@H]4C)nc23)ccc1Oc1ccc2c(c1)ncn2C [Example 257],19.8,8.2,3270,9.4,≥ 5000
CO[C@H]1C[C@@H](Nc2ncc3ncnc(Nc4ccc(Oc5ccc6c(c5)ncn6C)c(C)c4)c3n2)C1 [Example 260],31.8,42,≥ 10000,21.5,≥ 5000
Cc1cc(Nc2ncnc3cnc(NC(C)C)nc23)ccc1Oc1ccc2c(c1)ncn2C [Example 261],48.8,86.1,≥ 10000,21.9,≥ 5000
Cc1cc(Nc2ncnc3cnc(N4CC5(CC5)CS4(=O)=O)nc23)ccc1Oc1ccc2c(c1)ncn2C [Example 264],35.1,42.4,≥ 10000,6.6,≥ 5000
CSc1ncc2ncnc(Nc3ccc(Oc4ccc5c(c4)ncn5C)c(C)c3F)c2n1 [Example 266],115,796,≥ 10000,642,≥ 5000
Cc1cc(Nc2ncnc3cnc(NC4CC4)nc23)ccc1Oc1ccc2c(c1)ncn2C [Example 270],10.9,22.2,≥ 10000,3.1,≥ 5000
Cc1cc(Nc2ncnc3cnc(NC4CCCC4)nc23)ccc1Oc1ccc2c(c1)ncn2C [Example 273],95,202,≥ 10000,33.5,≥ 5000
Cc1cc(Nc2ncnc3cnc(N[C@H]4CNC[C@H]4F)nc23)ccc1Oc1ccc2c(c1)ncn2C [Example 276],8,13.5,1360,41.5,≥ 5000
Cc1cc(Nc2ncnc3cnc(N4CCN[C@H](C)C4)nc23)ccc1Oc1ccc2c(c1)ncn2C [Example 277],16,42.8,≥ 10000,28.3,≥ 5000
Cc1cc(Nc2ncnc3cnc(N4CCN[C@@H](C)C4)nc23)ccc1Oc1ccc2c(c1)ncn2C [Example 278],22,42.9,9550,13.5,≥ 5000
Cc1cc(Nc2ncnc3cnc(O[C@H]4CCN(C)C[C@H]4F)nc23)ccc1Oc1ccc2c(c1)ncn2C [Example 286],98.1,468,≥ 10000,81.4,≥ 5000
Cc1cc(Nc2ncnc3cnc(O[C@H]4CN(C)C[C@H]4F)nc23)ccc1Oc1ccc2c(c1)ncn2C [Example 287],42.9,118,≥ 10000,60.9,≥ 5000
Cc1cc(Nc2ncnc3cnc(O[C@H]4CCN(C)C[C@@H]4F)nc23)ccc1Oc1ccc2c(c1)ncn2C [Example 288],79.8,262,≥ 10000,94,≥ 5000

Structure (SMILES),IC50 [1] [nM],IC50 [2] [nM],IC50 [3] [nM],IC50 [4] [nM],IC50 [5] [nM]
Cc1cc(Nc2ncnc3cnc(O[C@H]4CNCC[C@@H]4F)nc23)ccc1Oc1ccc2c(c1)ncn2C [Example 289],109,584,≥ 10000,73.9,≥ 5000
Cc1cc(Nc2ncnc3cnc(O[C@H]4CNCC[C@H]4F)nc23)ccc1Oc1ccc2c(c1)ncn2C [Example 290],92.5,601,≥ 10000,83.5,≥ 5000
Cc1cc(Nc2ncnc3cnc(OCC4(F)CNC4)nc23)ccc1Oc1ccc2c(c1)ncn2C [Example 291],76.2,446,≥ 10000,84.1,≥ 5000
Cc1cc(Nc2ncnc3cnc(OCC4(F)CN(C)C4)nc23)ccc1Oc1ccc2c(c1)ncn2C [Example 292],105,558,≥ 10000,132,≥ 5000
Cc1cc(Nc2ncnc3cnc(O[C@H]4CN(C)CC[C@H]4F)nc23)ccc1Oc1ccc2c(c1)ncn2C [Example 293],87.7,568,≥ 10000,81.2,≥ 5000
Cc1cc(Nc2ncnc3cnc(O[C@@H]4CNC[C@H](F)C4)nc23)ccc1Oc1ccc2c(c1)ncn2C [Example 295],115,552,≥ 10000,40.4,≥ 5000
Cc1cc(Nc2ncnc3cnc(O[C@H]4CN(C)CC[C@@H]4F)nc23)ccc1Oc1ccc2c(c1)ncn2C [Example 296],59.6,141,≥ 10000,68.2,≥ 5000
COC1(C)CN(c2ncc3ncnc(Nc4ccc(Oc5ccc6c(c5)ncn6C)c(C)c4)c3n2)C1 [Example 298],40.2,234,≥ 10000,38.6,≥ 5000
Cc1cc(Nc2ncnc3cnc(N4CC5(C4)CC5(F)F)nc23)ccc1Oc1ccc2c(c1)ncn2C [Example 300],75.5,284,≥ 10000,30.7,≥ 5000
Cc1cc(Nc2ncnc3cnc(O[C@@H]4CNCC4(F)F)nc23)ccc1Oc1ccc2c(c1)ncn2C [Example 301],39.1,241,≥ 10000,60.8,≥ 5000
Cc1cc(Nc2ncnc3cnc(O[C@H]4C[C@@H](F)CN(C)C4)nc23)ccc1Oc1ccc2c(c1)ncn2C [Example 302],65.9,391,≥ 10000,141,≥ 5000
Cc1cc(Nc2ncnc3cnc(O[C@H]4CNCC4(F)F)nc23)ccc1Oc1ccc2c(c1)ncn2C [Example 303],64.2,403,≥ 10000,257,≥ 5000
Cc1cc(Nc2ncnc3cnc(N(C)[C@@H]4CN(C)C[C@@H]4F)nc23)ccc1Oc1ccc2c(c1)ncn2C [Example 305],14.1,20.3,1860,10.8,≥ 5000
Cc1c(Oc2ccn3ncnc3c2)ccc(Nc2ncnc3cnc(N(C)CC(C)(C)O)nc23)c1F [Example 306],16.7,35.1,6840,1000,≥ 5000
Cc1c(Oc2ccn3ncnc3c2)ccc(Nc2ncnc3cnc(N4CC[C@](C)(O)C4)nc23)c1F [Example 307],28.3,54.3,≥ 10000,1150,≥ 5000
Cc1c(Oc2ccn3ncnc3c2)ccc(Nc2ncnc3cnc(N4CC[C@@](C)(O)C4)nc23)c1F [Example 308],15.1,28.8,≥ 10000,492,≥ 5000
Cc1c(Oc2ccn3ncnc3c2)ccc(Nc2ncnc3cnc(N4CC[C@H]4C(C)(C)O)nc23)c1F [Example 309],184,223,≥ 10000,5000,≥ 5000
Cc1c(Oc2ccn3ncnc3c2)ccc(Nc2ncnc3cnc(N4CC[C@H](O)C4)nc23)c1F [Example 311],75.3,76.3,≥ 10000,3330,≥ 5000
